Data published in PubChem BioAssay (NCI).
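Tested at 5 concentrations; 48 h exposure; 96-well plates; endpoints linearly interpolated, else capped at highest concentration. The concentration for full growth arrest is given as TGI.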

Legend:
Test in all cases: growth of human tumour cells (NCI), 48 h
[1] = system: SW-620 colon
[2] = system: NCI-H460 lung
[3] = system: HOP-92 NSCLC
[4] = system: A549 NSCLC
[5] = system: HOP-62 NSCLC
[6] = system: NCI-H23 lung
[7] = system: ACHN renal
[8] = system: LOX IMVI melanoma
[9] = system: EKVX NSCLC
[10] = system: COLO 205 colon
[11] = system: NCI-H522 lung
[12] = system: OVCAR-4 ovarian
[13] = system: CAKI-1 renal
[14] = system: SK-OV-3 ovarian
[15] = system: KM12 colon
[16] = system: 786-0 renal
[17] = system: SR leukemia
[18] = system: A498 renal
[19] = system: MOLT-4 leukemia
[20] = system: CCRF-CEM leukemia
[21] = system: U251 CNS
[22] = system: NCI-H226 lung
[23] = system: OVCAR-5 ovarian
[24] = system: HL-60(TB) leukemia
[25] = system: OVCAR-8 ovarian
[26] = system: PC-3 prostate
[27] = system: TK-10 renal
[28] = system: BT-549 breast
[29] = system: SF-268 CNS
[30] = system: HCT-15 colon
[31] = system: SN12C renal
[32] = system: MDA-MB-231 breast
[33] = system: SNB-75 CNS
[34] = system: HCT-116 colon
[35] = system: MCF7 breast
[36] = system: RPMI-8226 leukemia
[37] = system: SK-MEL-5 melanoma
[38] = system: IGROV1 ovarian
[39] = system: HCC-2998 colon
[40] = system: SF-295 CNS
[41] = system: HT29 colon
[42] = system: SK-MEL-28 melanoma
[43] = system: K-562 leukemia
[44] = system: MDA-MB-435
[45] = system: MALME-3M melanoma
[46] = system: SK-MEL-2 melanoma
[47] = system: HS 578T breast
[48] = system: NCI/ADR-RES ovarian
[49] = system: OVCAR-3 ovarian
[50] = system: M14 melanoma
[51] = system: SNB-19 CNS
[52] = system: UO-31 renal
[53] = system: UACC-257 melanoma
[54] = system: MDA-N
[55] = system: UACC-62 melanoma
[56] = system: T-47D breast
[57] = system: DU-145 prostate

O=C(O)CCNC(=O)c1cc(N(CCBr)CCBr)c([N+](=O)[O-])cc1[N+](=O)[O-]
TGI [1]: > 100 µM | TGI [2]: > 100 µM | TGI [3]: > 100 µM | TGI [4]: > 100 µM | TGI [5]: > 100 µM | TGI [6]: > 100 µM | TGI [7]: > 100 µM | TGI [8]: > 100 µM | TGI [9]: > 100 µM | TGI [10]: > 100 µM | TGI [11]: > 100 µM | TGI [12]: > 100 µM | TGI [13]: > 100 µM | TGI [14]: > 100 µM | TGI [15]: > 100 µM | TGI [16]: > 100 µM | TGI [17]: > 100 µM | TGI [18]: > 100 µM | TGI [19]: > 100 µM | TGI [20]: > 100 µM | TGI [21]: > 100 µM | TGI [22]: > 100 µM | TGI [23]: > 100 µM | TGI [24]: > 100 µM | TGI [25]: > 100 µM | TGI [26]: > 100 µM | TGI [27]: > 100 µM | TGI [28]: > 100 µM | TGI [29]: > 100 µM | TGI [30]: > 100 µM | TGI [31]: > 100 µM | TGI [32]: > 100 µM | TGI [33]: > 100 µM | TGI [34]: > 100 µM | TGI [35]: > 100 µM | TGI [36]: > 100 µM | TGI [37]: > 100 µM | TGI [38]: > 100 µM | TGI [39]: > 100 µM | TGI [40]: > 100 µM | TGI [41]: > 100 µM | TGI [42]: > 100 µM | TGI [43]: > 100 µM | TGI [44]: > 100 µM | TGI [45]: > 100 µM | TGI [46]: > 100 µM | TGI [47]: > 100 µM | TGI [48]: > 100 µM | TGI [49]: > 100 µM | TGI [50]: > 100 µM | TGI [51]: > 100 µM | TGI [52]: > 100 µM | TGI [53]: > 100 µM | TGI [54]: > 100 µM

COc1cc2cc(C(=O)N3CC(CCl)c4c3cc(NCCN)c3ccccc43)[nH]c2c(OC)c1OC (centres undefined)
TGI [1]: 0.311 µM | TGI [3]: < 0.01 µM | TGI [5]: < 0.0221 µM | TGI [6]: < 0.01 µM | TGI [7]: < 0.01 µM | TGI [9]: 0.0789 µM | TGI [10]: < 0.01 µM | TGI [11]: < 0.01 µM | TGI [12]: 0.054 µM | TGI [13]: < 0.01 µM | TGI [14]: 1.42 µM | TGI [15]: < 0.01 µM | TGI [17]: > 100 µM | TGI [18]: < 0.0136 µM | TGI [21]: < 0.01 µM | TGI [26]: < 0.0328 µM | TGI [27]: < 0.0181 µM | TGI [28]: 0.0817 µM | TGI [29]: 0.484 µM | TGI [30]: 0.0536 µM | TGI [31]: < 0.017 µM | TGI [33]: 0.0479 µM | TGI [35]: < 0.01 µM | TGI [40]: < 0.0468 µM | TGI [42]: 0.564 µM | TGI [44]: < 0.01 µM | TGI [45]: < 0.0134 µM | TGI [46]: < 0.01 µM | TGI [55]: < 0.01 µM | TGI [48]: 0.0799 µM | TGI [56]: 1.07 µM | TGI [57]: 1.07 µM | TGI [50]: < 0.0121 µM | TGI [52]: < 0.0132 µM | TGI [54]: < 0.0203 µM
